Target: T1, Kv1.1-I182S, E192I, K195N (Kv1.1–3 M) (Homo sapiens, UniProt Q09470, E191I/I183S/K196N)
T1 construct: expressed in transfected cells; host or cells: Xenopus laevis oocytes
Assay: TEVC of oocytes expressing Kv1.1-3M
Assay type: cell-based
Text: The functional data support a Kv1.1 gallic acid-binding site similar to that predicted by the MD simulation (Fig. 10f; Supplementary Movie 1).
Wild-type and mutant Kv1 cDNAs were generated (Genscript, Piscataway, NJ) in the pTLNx expression vector. As previously described, we generated cRNA transcripts encoding human Kv1.1 (wild-type and mutant) and Kv1.2, by in vitro transcription using the mMessage mMachine kit (Thermo Fisher Scientific), after vector linearization, from cDNA sub-cloned into plasmids (pTLNx) incorporating Xenopus laevis β-globin 5’ and 3’ UTRs flanking the coding region to enhance translation and cRNA stability. We injected defolliculated stage V and VI Xenopus laevis oocytes (Xenoocyte, Dexter, MI, US) with Kv1 cRNAs (1–5 ng). We incubated the oocytes at 16 °C in ND96 oocyte storage solution containing penicillin and streptomycin, with daily washing, for 2 days prior to two-electrode voltage-clamp (TEVC) recording.
We performed TEVC at room temperature using an OC-725C amplifier (Warner Instruments, Hamden, CT) and pClamp10 software (Molecular Devices, Sunnyvale, CA) 2 days after cRNA injection as described in the section above. For recording, oocytes we placed in a small-volume oocyte bath (Warner) and viewed with a dissection microscope. We sourced chemicals from Sigma. We studied effects of plant extracts and of compounds, solubilized directly in bath solution (in mM): 96 NaCl, 4 KCl, 1 MgCl2, 1 CaCl2, 10 HEPES (pH 7.6). […] We recorded currents in response to voltage pulses between −80 mV and +40 mV at 10 or 20 mV intervals from a holding potential of −80 mV, to yield current-voltage relationships and examine activation kinetics. To calculate the voltage dependence of activation (V0.5), tail currents were recorded at a voltage pulse of −50 mV immediately following prepulse voltages between −80 mV and +40 mV. We analyzed data using Clampfit (Molecular Devices) and Graphpad Prism software (GraphPad, San Diego, CA, USA), stating values as mean ± SEM. […]

T1 sequence (Q09470 whole entry I183S/E191I/K196N): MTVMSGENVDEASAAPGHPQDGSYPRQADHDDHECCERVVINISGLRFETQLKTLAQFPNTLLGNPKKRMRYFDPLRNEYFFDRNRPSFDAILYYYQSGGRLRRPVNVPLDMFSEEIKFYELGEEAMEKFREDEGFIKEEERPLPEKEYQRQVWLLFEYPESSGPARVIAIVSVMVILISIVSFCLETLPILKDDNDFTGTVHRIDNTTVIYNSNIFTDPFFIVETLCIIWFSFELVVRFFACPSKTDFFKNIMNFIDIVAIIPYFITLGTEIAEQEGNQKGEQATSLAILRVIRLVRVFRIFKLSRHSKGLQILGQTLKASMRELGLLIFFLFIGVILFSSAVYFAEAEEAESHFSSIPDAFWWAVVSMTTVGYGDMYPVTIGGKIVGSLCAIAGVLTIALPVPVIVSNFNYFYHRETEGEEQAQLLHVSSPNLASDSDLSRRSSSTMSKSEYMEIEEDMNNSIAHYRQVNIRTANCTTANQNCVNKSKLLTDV

For O=C(O)c1cc(O)c(O)c(O)c1 [gallic acid], the EC50 was 345 ± 38 nM, the “EC50 for peak current augmentation” value (at −40 mV) was “not measurable” and the “maximal peak current augmentation compared to Kv1.1” value (at −40 mV) was “reduced fivefold”.

Source: PMC10244465, “Native American ataxia medicines rescue ataxia-linked mutant potassium channel activity via binding to the voltage sensing domain” (Nature Communications, 2023)
